Measurements: paper PMC6906431, “Selective small molecule PARG inhibitor causes replication fork stalling and cancer cell death” (Nature Communications, 2019)
Values joined by “and” are separate entries in the source; they are usually repeats but may differ in a detail not shown here. Equal entries are not always repeated.

Legend:
Assay type in all cases: cell-based, human
MDA-MB-231 cells = assay: Clonogenic survival assay; conditions: for colony count (clonogenic survival, raw replicate data, Supplementary Figure 8): MDA-MB-231
Experimental: (§1) Fig. 6 Selective inhibition of PARG by xanthine derivative JA2131. a Clonogenic survival assays of PC3, MDA-MB-231, and MCF-7 cells treated with PARGi. Cells were treated with either DMSO or 10 µM JA2131 for 2 h, irradiated with 3 Gy (MDA-MB-231 and MCF-7), 7 Gy (PC3) IR and grown for ~2 weeks, then colonies were fixed with methanol and stained with crystal violet. The results of three independent experiments are shown. Error bars = the standard error of the mean (SEM). b dose-response of JA2131 in MDA-MB-231 cells with and without IR. Cells were treated with designated concentrations of JA2131 for 2 h and then either left untreated or exposed to 3 Gy IR and allowed to recover for 1 h before lysis. Total protein was immunoblotted with anti-PAR antibody (upper panel), stripped and reprobed with anti-PCNA as a loading control. c MDA-MB-231 cells with stable scrambled shRNA (WT) or stable PARG shRNA, knockdown (KD), were treated with 5 μM JA2131 for 2 h, lysed and then total lysates were immunoblotted for anti-PAR (upper panel) followed by anti-PARG (upper middle panel), anti-PARP1 (lower middle panel) and anti-actin (bottom panel) antibody. […] Stable cells with scramble shRNA (control) and shPARG (PARG-KD) cells were treated with an increasing concentration of JA2131 for growth inhibitory IC50 determination. The data was normalized against 100% survival at the lowest inhibitor concentration. Error bars show the percent coefficient of variation. Equivalent concentrations of DMSO were used as a negative control. e The cytotoxicity of JA2131 along with PDD, Veliparib and Doxorubicin against MRC-5 cells. Error bars show the percent coefficient of variation. f CETSA for in-cell JA2131 target engagement. Normalized anti-PARG western blot intensities of three independent experiments were fitted as above and the estimated aggregation temperature (Tagg) is shown in the tabulated insert. Source Data are provided as a Source Data file.
(§2) PC3, MDA-MB-231 cells were maintained in RPMI 1640, MCF-7 cells in Eagle’s Minimum Essential Medium (EMEM), MRC-5 cells in Eagle’s Minimum Essential Medium and Hela and U2OS cells in Dulbecco’s modified Eagle’s high glucose medium (DMEM) supplemented with 10% (vol/vol) fetal bovine serum (FBS) and 1% antibiotic/antimycotic (Lonza) in a humidified incubator with 10% CO2. All cell lines were purchased from ATCC and regularly checked for mycoplasma and cell authentication. SUM 149PT cells were cultured in F-12 Hams (Gibco) supplemented with 5% fetal bovine serum, insulin, and hydrocortisone. Colony formation assays were carried out in 6-well plates, 500 cells were used per well and following designated treatment, and colonies were grown for 2 weeks. Cells were fixed with methanol (100%), stained with crystal violet and analyzed using a GelCount instrument (Oxford Optronix Ltd). Crystal Violet C6158 was purchased from Sigma. PARG knockdown cells were generated by infecting MDA-MB-231 cells with shPARG lentiviral particles (sc-106355-V, Santa Cruz Biotechnology), which contain a pool of three shRNA plasmids. After 24 h infection, 3 µg/ml puromycin (Invitrogen) was added and antibiotic-resistant cells were further expanded and used for experimentation. Sequence-1; hairpin sequence: […], sense: […]tt, Antisense: […]tt. Sequence-2; hairpin sequence, […]-[…], sense: […]tt, antisense: […]tt. Sequence-3; hairpin sequence: […]-[…], sense: […]tt, antisense: […]-GGUUUCCtt. Control cells were generated using the same process except that scramble lentiviral particles with scrambled sequences were used (sc-108080).
(§3) Supplementary Fig. 8: Clonogenic survival of cells in the presence of PARGi and PARPi (a)
(§4) Clonogenic survival of PC3 cells in response to indicated compounds. ( b) Clonogenic survival of
(§5) MDA-MB-231 cells in response to i ndicated compounds. (c) Clonogenic survival of MCF -7 cells
(§6) in response to indicated compounds. […]

PC3 cells = assay: Clonogenic survival assay; conditions: for surviving colonies, Replicates: two weeks
Experimental: as §1, §2, §3, §4, §5, §6

[1] = tested on: PARPi resistant SUM149PT cells; assay: PAR and gH2AX high-content imaging in PARPi-resistant cells; conditions: 10 µM JA2131 2 h; 3Gy IR
Experimental: PARG inhibitors as potential therapeutic option for PARP1 inhibitor resistant cancers.
As PARP1 inhibitors are now widely used in the clinic but frequently resistance is emerging, we evaluated if PARG may be a therapeutic option for patients who become PARP1 inhibitor resistant. We therefore generated PARP1 inhibitor resistant SUM149PT triple negative breast cancer cell-lines through with 100 nM talazoparib for 5 constitutive days and then with 15-50 nM talazoparib until resistant cells grew into clones. The resulting resistant cell clones were propagated and expanded to generate PARP inhibitor resistant SUM149PT derivative cells that no longer responded to PARP1i treatment. We then investigated whether the PARP resistant breast cancer cells would response to the PARG inhibitors. Four PARPi resistant SUM149PT cell clones together with wild type cells were treated with JA2131. PAR accumulation and gH2AX foci formation were analyzed by high content imaging (Fig. S6). Treatment of cells with […]
immu n o fluorescence signals. The PAR accumulation and gH2AX foci formation was very similar […]
PARP1 resistant patients.
Supplementary Fig. 17: PARPi resistant cells respond to JA2131 PARGi. (a) PARGi sensitizes PARP1i resistant breast cancer cells. […]

HeLa cells = assay: DNA fiber assay, replication fork progression; conditions: JA2131 10 µM
From the text: Normalized % viabilities are plotted against log concentration. Error bars show the percent coefficient of variation. […] Mann-Whitney test was used to generate the p-value. The DNA spread assay is the representation of two independently repeated experiments. Source Data are provided as a Source Data file.

[2] = 10 µM JA2131 2 h, 7 Gy IR, ~2 weeks

Cn1c(=S)c2[nH]c(SCCN3CCOCC3)nc2n(C)c1=O [JA2131]
Surviving Fraction (MDA-MB-231 cells; 10 µM JA2131 2 h, 3 Gy IR, ~2 weeks): 0.4526 and 0.3681 and 0.2687 and 0.3631 | colony count (clonogenic survival, raw replicate data, Supplementary Figure 8) (MDA-MB-231 cells; Experiment-1, replicates 1-6): 76 (2×) and 74 and 77 and 70 and 85 | colony count (clonogenic survival, raw replicate data, Supplementary Figure 8) (MDA-MB-231 cells; Experiment-2, replicates 1-6): 61 (3×) and 68 and 76 and 65 | colony count (clonogenic survival, raw replicate data, Supplementary Figure 8) (MDA-MB-231 cells; Experiment-3, replicates 1-6): 34 and 25 and 20 and 47 and 33 and 35 | Surviving Fraction (PC3 cells; [2]): 0.7713 and 0.7545 and 0.8277 and 0.7845 | clonogenic survival (Exp-1 to Exp-4) (PC3 cells; [2]): 77.1344 and 75.4495 and 82.7709 and 78.4516 | surviving colonies, Replicates (PC3 cells; JA2131 0.5 uM): 47 and 58 and 49 and 56 and 83 and 61 | surviving colonies, Replicates (PC3 cells; JA2131 1 uM): 9 and 48 and 34 and 20 and 62 and 2 | surviving colonies, Replicates (PC3 cells; JA2131 5 uM): 1 and 29 and 2 (2×) and 24 and 0 | surviving colonies, Replicates (PC3 cells; JA2131 10 uM): 2 and 15 and 14 and 0 and 21 and 5 | PAR accumulation and gH2AX staining [1]: increased PAR accumulation as well as gH2AX staining | average IdU tract (HeLa cells; 2 h pretreatment, no genotoxic stress): 6.0 μm | average IdU tract length (HeLa cells; low-dose hydroxyurea): 5.0 μm
